Data reported in US10457961B2, “Chimeric proteins and methods of regulating gene expression” (The Board of Trustees of the Leland Stanford Junior …, priority 2016, dated 2019).

Key:
[1] = test system: CDKN1B (cyclin-dependent kinase inhibitor 1B); experiment: CDKN1B upregulation and cell cycle arrest with minimal NC5 variants in HEK293T cells; assay type: cell-based, human; settings: cells with minimal NC5 receptor variant and sgCDKN1B
From the text: Minimal NC5 receptor variants were used to elicit Delta-dependent arrest of the cell cycle (FIG. 39A). CDKN1B (cyclin-dependent kinase inhibitor 1B) was targeted in HEK293T cells with sgRNAs (sgCDKN1B). CDKN1B overexpression leads to cellular arrest at the G0/G1 phase (FIG. 39B). […] The Delta-induced CDKN1B upregulation and G0/G1 arrest in cells was abrogated with DAPT (FIGS. 39E and 39F).

[2] = test system: luciferase reporter gene; experiment: Luciferase reporter activation by chimeric CXCR4-dCas9-VPR in HEK293 cells; assay type: cell-based, human
From the text: FIGS. 23A and 23B show the results from three independent experiments testing the activity of a chimeric CXCR4-dCas9-VPR-mCherry 2301 in host cells, e.g., HEK293 cells. After ligand binding 2311, the β2-arrestin-protease was recruited to the activated receptor and the protease released the dCas9-VPR-mCherry from the receptor 2321. The expression construct for the β2-arrestin-protease is shown as 2351. The reporter construct is shown in 2341. In each experiment, the dCas9-VPR was paired with a single guide RNA (sgRNA) that specifically activates luciferase expression, which in turn generates luminescence. In this experiment a sgRNA-BFP was used 2331. In some experiments, a scFv-mCherry-VPR 2305 and/or a dCas9-10×GCN4 2307 was used as a control.
The CXCR4-dCas9-VPR-mCherry 2361 was conditionally expressed from a doxycycline-inducible promoter (TRE3G), such that only addition of doxycycline (Dox) and the presence of a co-activator can trigger expression of the recombinant receptor. Without Dox, there is no luminescence (FIG. 23B). […] Upon Dox addition, chimeric CXCR4-dCas9 was expressed, and luminescence was detected. […] Chimeric GPCR-dCas9 proteins described herein can be expressed in immune cells such as T cells and macrophages. Also, chemotactic experiments can be performed to determine if CXCL12 can serves as a chemoattractant to T cells expressing the chimeric GPCR-dCas9 proteins. […]

[3] = test system: GFP reporter; experiment: GFP reporter activation by chimeric GPCR-dCas9-VPR receptors in HEK293T cells; assay type: cell-based, human; settings: sgRNA and β2-arrestin-protease; presence of ligand (LPA, SDF1, or CNO) compared to absence of ligand
From the text: The released dCas9-VPR was then targeted by sgRNA to a target polynucleotide to alter expression levels of a GFP reporter.

[4] = test system: UAS promoter controlling H2B-citrine reporter gene; experiment: Delta-dependent H2B-citrine reporter activation in CHO UAS-H2B cells with sgUAS; assay type: cell-based, Chinese hamster
Description: A fusion construct, NC1, was created by replacing the NICD from human NOTCH1 with the Streptococcus pyogenes dCas9 fused to a tripartite activation domain (VP64, p65, and Rta) (FIG. 31B) with three copies of a nuclear localization signal (NLS) sequence. The construct was fluorescently tagged with mCherry to determine its subcellular distribution. Next, it was determined how the NC1 fusion construct responded to extracellular Delta ligands when transfected in mammalian cells. A Chinese hamster ovary (CHO) reporter cell line was used that was previously developed to dissect Notch-Delta signaling (Sprinzak, D. et al. Cis-interactions between Notch and Delta generate mutually exclusive signalling states. Nature 465, 86-90, doi:10.1038/nature08959 (2010)). The CHO cell line contained an inducible UAS (upstream activating sequence) promoter controlling the citrine (YFP)-tagged reporter gene, histone 2B (H2B). sgRNAs (sgUAS) were stably expressed via lentiviral transduction that allow cleaved dCas9 to bind to the UAS promoter (see Table 6). […] By imaging the fluorescence of nucleus-bound H2B-citrine, it was determined whether NC1 induced H2B expression upon exposure to surface-adsorbed Delta (FIG. 31C). […]
(§1) Cells were trypsinized and analyzed for reporter fluorescence or protein immunofluorescence using a Scanford FACScan analyzer (Becton Dickinson) and standard protocols. […]

[5] = test system: cyclin-dependent kinase inhibitor 1B (CDKN1B); experiment: Delta-dependent CDKN1B upregulation and G0/G1 arrest in HEK293 sgCDKN1B cells; assay type: cell-based, human
From the text: Combining the ability to route native extracellular signals with the discriminatory power of sgRNA-mediated Cas9 binding to virtually any genomic target opens up an exponential amount of signaling pathways and functions (FIG. 32A). The Notch chimeric receptors disclosed herein were used to elicit a novel Delta-dependent arrest of the cell-division cycle. HEK293 cells were stably transduced with lentivirus-packaged sgRNAs that specifically target cyclin-dependent kinase inhibitor 1B (CDKN1B), an endogenous regulator of the cell cycle. […] NC5 was transfected into HEK293 cells stably expressing sgRNAs for CDKN1B (sgCDKN1B) and the cells were subsequently introduced onto bare or Delta-containing surfaces. […] 38% of Delta-exposed, NC5-transfected, and sgCDKN1B^+ cells were determined to be sequestered at the G0/G1 phase, and only 2-16% of cells in all other conditions tested. […]
as §1

[6] = test system: tet-inducible EGFP gene; experiment: EGFP activation in HEK293T tet-inducible EGFP sgTET reporter cells on immobilized Delta; assay type: cell-based, human; settings: cells cultured without Delta, and DAPT-treated cells with the highest Delta concentration, 3 days
Description: Activation of NC5 receptors by immobilized Delta ligand leads to cleavage and nuclear translocation of dCas9-VPR. dCas9-VPR complexed with a sequence-specific sgRNA (e.g., sgTET) allows for binding of the complex to the (e.g., TET) promoter and activation of EGFP gene (FIG. 31G). […] Cells transfected with dCas9-VPR or NC5 receptor (with or without the γ-secretase inhibitor, DAPT) were cultured with or without immbolized Delta for 3 days. Percentage of activated cells (ON %) is also indicated. Cells are considered ON above the basal intensity of all cells with no construct. […] Mean fold change compared to DAPT-treated condition is indicated.
Surface adsorption of Delta: Experiments described in this example were performed with cells plated on 24- or 48-well plates (Corning) at 1.5×10^4 cells/mL. […] For experiments with CHO cells, 5 μg/mL of hamster fibronectin (Innovative Research) was also adsorbed together with Delta.
Cells were trypsinized and analyzed for reporter fluorescence or protein immunofluorescence using a Scanford FACScan analyzer (Becton Dickinson) and standard protocols. For intracellular proteins, cells were trypsinized and fixed in 4% paraformaldehyde solution for 15 minutes, were incubated for 2 h at room temperature with the appropriate primary antibody in a solution of 0.3% Triton-X 100 (Sigma) with 2% normal donkey serum (Thermo Fisher) in PBS. […]

[7] = test system: 12xCSL promoter H2B-citrine reporter; experiment: H2B-citrine reporter driven by 12xCSL promoter in CHO cells with sasgCSL; assay type: cell-based, Chinese hamster; settings: with S. aureus-specific sgRNA (sasgCSL)
From the text: Chimera modularity was further explored by testing another Cas9 ortholog in a similar reporter assay (H2B-citrine driven by a 12×CSL promoter that also allows wild-type NICD to bind). A Staphylococcus aureus dCas9 was introduced in the NC5 design. This resulting S. au.
All cell lines used in FIGS. 31A-31F were based on the cell line T-Rex-CHO-K1 (Invitrogen). Stable cell clones of UAS-H2B-citrine and 12×CSL-H2B-citrine were obtained. Additional cell lines were generated from lentiviral transduction (of all sgRNAs and SV40-EGFP) or plasmid transfection using TransIT-LT1 reagent (Minis Bio) per manufacturer's instructions, followed by appropriate antibiotic selection and maintenance. Stably transfected clones expressing NC5 and sgUAS in the UAS-H2B-citrine line were isolated by FACS, after 2 weeks of puromycin and geneticin selection. All CHO cell lines were grown in Alpha MEM with Earle's Salts (Irvine Scientific) supplemented with 10% Tet System Approved FBS (Clontech), 100 U/mL of penicillin and streptomycin, 2 mM L-glutamine (Gibco) and 10 μg/mL blasticidin (VWR International) at 37° C. with 5% CO2 in a humidified incubator.
Surface adsorption of Delta: Experiments described in this example were performed with cells plated on 24- or 48-well plates (Corning) at 1.5×10^4 cells/mL. […]

[8] = test system: pTET-EGFP reporter; experiment: EGFP reporter activation by dCas9-VPR iNLS variants in HEK293 pTET-EGFP sgTET cells; assay type: cell-based, human
From the text: Cas9 found at amino acid residues 647-670. […] Representative histograms of EGFP activation in the presence or absence (bottom) of constructs and quantification of EGFP activation (normalized to untransfected cells) is shown (SEQ ID NO: 31, 32). […] FIGS. 35C and 35D show visually by microscopy and quantitatively that adding a synthetic NLS to the N-terminus of iNLS-mutated dCas9-VPR partially restores EGFP activation.
Cas9. This iNLS sequence ([…] (SEQ ID NO: 31)) of amino-acid residues was mapped to a helix-linker-helix motif in the crystal structure of S. py. Cas9. […] Mutating 6 arginine or lysine residues of the iNLS to alanines ([…] (SEQ ID NO: 32)) in a dCas9-VPR-mCherry construct impaired EGFP activation (from 18-fold down to 4-fold) in HEK293 reporter cells. […] Disrupting this iNLS motif by mutating arginine and lysine residues to alanines […] […] Representative histograms of EGFP reporter are shown to the right; percentage of cells considered ‘ON’ had reporter intensities above untransfected ‘OFF’ cells.

## C[C@H](NC(=O)Cc1cc(F)cc(F)c1)C(=O)N[C@H](C(=O)OC(C)(C)C)c1ccccc1 [DAPT]
[1]
  Delta-induced CDKN1B upregulation and G0/G1 arrest: abrogated

## CXCR4-dCas9-VPR: CXCR4-V2 tail-TEV cleavage site-dCas9-VPR-NLS-mCherry, SEQ ID NO:3
[2]; HEK293 cells, sgRNA activating luciferase, receptor induced with doxycycline
  luminescence (luciferase reporter): sensitive to increasing concentrations of the CXCR4 ligand, CXCL12
[2]; sgTET, TetO promoter, β2-arrestin-protease
  transcription of luciferase gene: regulated by CXCL2 binding
[3]
  levels of GFP reporter protein: increased levels of GFP reporter protein

## NC5: hNECD-dCas9-VPR-mCherry with LMAN1 MMS sequence at the C-terminus, no synthetic NLS
[4]; CHO reporter cells with NC5 and sgUAS stably integrated, single clone
  H2B activation in response to Delta: Three-fold
[4]; transfected CHO UAS-H2B-citrine sgUAS cells, bare or Delta-coated surface, 4 days
  H2B expression with or without Delta: exhibited Delta-dependent activation of H2B
[5]; 4 days on Delta, compared to bare-surface, untransfected controls
  upregulation of CDKN1B: > 2 fold
[5]; Delta-exposed, NC5-transfected, sgCDKN1B+ cells
  cells sequestered at the G0/G1 phase: 38%
[6]
  EGFP activation: did not activate EGFP

## S. au. NC5 dCas9 variant: NC5 design with Staphylococcus aureus dCas9
[7]
  Delta-dependent activation levels of H2B-citrine: exhibited Delta-dependent activation levels similar to wild-type human NOTCH1

## mutated-iNLS variant: dCas9-VPR-mCherry with 6 arginine or lysine residues of the iNLS mutated to alanines (SEQ ID NO: 32) (VMAQLKAAAYTGWGRLSAALINGI)
[8]; HEK293T cells, confocal microscopy
  nuclear localization and EGFP reporter activation: severely impaired nuclear localization and EGFP reporter activation
[8]; HEK293 reporter cells
  percentage of cells that activate EGFP: ~16%
[8]; HEK293 reporter cells, normalized to untransfected cells
  EGFP activation: 4 fold
[8]; synthetic NLS added back to the N-terminus
  EGFP activation: partially restored EGFP activation
